# Measured values as given in US7288573B2, “Method of repelling insects” (priority 2001, dated 2007).
# Several values for one entry are separate records, joined by “and”; a condition that tells them apart may be missing. Identical values can stand only once. Entries after “also recorded” stand apart in the source; their conditions may differ.
# Tests used:
# Aedes albopictus = assay: One-minute biting counts on treated forearm (Example 7); format: in vivo; settings: 20% formulations; post-treatment time intervals
# Experimental: This experiment was performed to evaluate the comparative repellency of 5% and 20% 2-undecanone in ethanol, 20% 2-tridecanone in isopropanol and Off!™ 14.25% DEET Insect Repellent aerosol against Aedes albopictus (Asian tiger mosquitoes) and Culex quinquefasciatus (southern house mosquitoes).
# Three to four-day-old laboratory-reared female Ae. albopictus and Cx. quinquefasciatus were transferred by aspiration into eight cages measuring 10 inches high×10 inches wide×13 inches deep at a targeted stocking rate of 100 and 200, respectively. Four cages contained Ae. albopictus and four contained Cx. quinquefasciatus. A greater number of Cx. quinquefasciatus was used to compensate for lower biting activity anticipated for this species. The actual number of females per cage was lower than the target-stocking rate because of the high number of males that were inadvertently introduced into the cages. Each cage contained a screened back wall, clear Plexiglas top, stockinette entry sleeve and solid aluminum floor and sidewalls. The mosquitoes were fed water and sugar water prior to and between tests. The tests were conducted over four days, Aug. 7-10, 2001, with four men participating as testers. All testers washed both arms with a non-fragrance soap, rinsed and swabbed with 25% ethanol prior to applying treatments. Treatments were applied to the forearm in a region extending from the wrist to a point measured at 12″ back from the tip of the index finger on both arms. The 20% 2-tridecanone was not applied as uniformly as the other repellents because an insufficient quantity was available. Latex gloves were worn over the hands and replaced before each biting count. The control consisted of a soap wash, rinse and 25% ethanol swab and was conducted by the same person throughout the study. One-minute biting counts were recorded at 0, 1, 2, 4 & 6 hours post-treatment time intervals. All treatments were randomly assigned to each tester, two treatments per tester. Cage placement was also randomized at the beginning of each day of testing. Testers were rotated each day so that by the end of the study they had occupied each cage location. Each repellent was tested two times by three testers so that mean biting counts were based on six observations. A Hobo datalogger was used to monitor temperature and humidity throughout the study.
# A balanced incomplete block design following American Society for Testing and Materials standards E 939-94 was employed. Data were normalized by square root transformation and submitted to analysis of variance and mean separation procedures via SS PC. Microsoft Excel 2000 pivot tables and charting functions were used to plot mean biting counts and standard errors by species and time interval for each treatment and control. Mean biting counts were transformed to percent protection or repellency by the following formula: Control−Treatment/Control×100.
# Culex spp. = assay: Mosquito repellency of 2-undecanone and 2-tridecanone, treated arm in cage (Example 6); format: in vivo; settings: for No. landings: single replicates; for observed repellent / residual activity (words): observed up to 24 hours post-treatment
# Excerpt: Cages. The same two mosquitoes cages described in Example 5 were used for this example. The cages were constructed using wood framing and fine mesh wire screen. The dimensions of each cage were 59 cm high×55 cm wide by 59 cm deep. A hinged access door was installed at the front of each chamber for insertion of the water-filled containers filled with mosquito pupae. Also present at the front of each chamber was a 9 cm diameter plastic tube (i.d.) for insertion of the arm of the investigator. The arm insertion tube was sealed with a rubber stopper when not in use.
# Mosquitoes and Mosquito Rearing. Mosquitoes (Culex spp.) were obtained (as pupae and larvae) from Carolina Biological Supply Co., Burlington, N.C., USA in two successive shipments, so as to provide a continuing long term supply of fresh insects. Following their arrival, the mosquitoes were divided into approximately equal numbers in multiple water-filled containers and placed in the two cages described above. The larval and pupal cultures were fed with insect rearing compound. In addition, the water was changed regularly by filtration to minimize contamination and prevent overcrowding. Continuous culturing made it possible to increase the mosquito numbers to more than 100 insects per cage.
# Test Compounds and Testing Schedule. Testing was done with two compounds, 2-undecanone, and 2-tridecanone, for repellent activity by treating one arm of the investigator with approximately 1 ml of the test solution. Following several minutes for solvent evaporation, the treated arm was inserted through the insertion tube for 5 minutes. The other arm was treated with isoprbpanol (control) or a different concentration of the compound, and inserted into the insertion tube of the adjacent chamber. Next, the behavior of the mosquitoes in response to the presence of the investigator's arms was noted. Mosquito behavior was recorded as 1) landing or attempting to land on the investigator's arm, or coming to rest on the wire screen immediately adjacent to the investigator's arm or hand, versus 2) dispersal away from the treated arm towards the opposite ends of the cage. The approximate number of mosquitoes present at the beginning of the observations was noted. For treatments with 2-undecanone, observations were made initially to confirm 100% repellent activity of the compound immediately after treatment but observations were not recorded. Recording of efficacy was delayed until 6 hours after treatment, and then repeated at 12 and 24 hours post-treatment. For treatment with 2-tridecanone, the observations commenced immediately after solvent drying; then, the observations were repeated (without re-treatment of the investigator's hand and arm) after 6 hours, 12 hours and 24 hours. Treatments were alternated between the different cages. […]
# 2-tridecanone was obtained as a solid. To prepare this compound for testing, it was subjected to gentle heating in a 37° C. water bath to liquefy it, and aliquots of the stock were diluted volume: volume with isopropanol to 50% concentration and 20% concentration. Sufficient pure compound was retained for direct application (undiluted).
# Tests were done at concentrations of 100%, 50%, and 20% for each of the two compounds, as well as 20% DEET, and the isopropanol control.
# Table 3 presents the efficacy found at the different time intervals for each of the compounds at the three different concentrations and for DEET. Efficacy was calculated according to the formula: [(no. landings/no. present in control)−(no. landings/no. present in experinental) divided by (no. landings/no. present in control)]×100.
# [1] = 20% concentration, 0 hours after treatment
# [2] = 20% concentration, 6 hours after treatment
# [3] = 20% concentration, 12 hours after treatment
# [4] = 20% concentration, 24 hours after treatment
# [5] = 50% concentration, 0 hours after treatment
# [6] = 50% concentration, 6 hours after treatment
# [7] = 50% concentration, 12 hours after treatment
# [8] = 50% concentration, 24 hours after treatment
# [9] = 100% concentration, 0 hours after treatment
# [10] = 100% concentration, 6 hours after treatment
# [11] = 100% concentration, 12 hours after treatment
# [12] = 100% concentration, 24 hours after treatment
structure (smiles),measurement,setting,value
CCCCCCCCCCCC(C)=O [2-tridecanone],repellency,Aedes albopictus,low repellency
same,Percent Efficacy Post-Treatment,"Culex spp.; 20% concentration, 0 hours",1.5%^
same,"No. landings, Mean",Culex spp.; [1],4.0
same,Percent = [(No. landings/No. present)] × 100,Culex spp.; [1],14.4%
same,No. landings,Culex spp.; [1],4 and 3 and 5
same,Percent Efficacy Post-Treatment,"Culex spp.; 20% concentration, 6 hours",0%
same,"No. landings, Mean",Culex spp.; [2],4.7
same,Percent = [(No. landings/No. present)] × 100,Culex spp.; [2],14.0%
same,No. landings,Culex spp.; [2],3 and 4 and 7
same,Percent Efficacy Post-Treatment,"Culex spp.; 20% concentration, 12 hours",22.2%
same,"No. landings, Mean",Culex spp.; [3],4.7
same,Percent = [(No. landings/No. present)] × 100,Culex spp.; [3],13.0%
same,No. landings,Culex spp.; [3],3 and 5 and 6
same,Percent Efficacy Post-Treatment,"Culex spp.; 20% concentration, 24 hours",0%
same,"No. landings, Mean",Culex spp.; [4],5.7
same,Percent = [(No. landings/No. present)] × 100,Culex spp.; [4],14.9%
same,No. landings,Culex spp.; [4],5 and 6 (2×)
same,observed repellent / residual activity (words),Culex spp.; 20% concentration,repellant activity was not observed
same,observed repellent / residual activity (words),"Culex spp.; 20% concentration, listed as 2-Tridecanone",Comments: No residual repellent activity was observed.
same,Percent Efficacy Post-Treatment,"Culex spp.; 50% concentration, 0 hours",95.2%
same,"No. landings, Mean",Culex spp.; [5],0.7
same,Percent = [(No. landings/No. present)] × 100,Culex spp.; [5],0.7%
same,Percent = [(No. landings/No. present)] × 100,"Culex spp.; 50% concentration, 0 hours after treatment, listed as 2-Tridecanone",2.4%
same,No. landings,Culex spp.; [5],0 and 1 (2×)
same,Percent Efficacy Post-Treatment,"Culex spp.; 50% concentration, 6 hours",67.7%
same,"No. landings, Mean",Culex spp.; [6],1.3
same,Percent = [(No. landings/No. present)] × 100,Culex spp.; [6],4.3%
same,Percent = [(No. landings/No. present)] × 100,"Culex spp.; 50% concentration, 6 hours after treatment, listed as 2-Tridecanone",4.3%
same,No. landings,Culex spp.; [6],3 and 0 and 1
same,Percent Efficacy Post-Treatment,"Culex spp.; 50% concentration, 12 hours",0%
same,"No. landings, Mean",Culex spp.; [7],5.7
same,Percent = [(No. landings/No. present)] × 100,Culex spp.; [7],19.7%
same,No. landings,Culex spp.; [7],7 and 4 and 6
same,Percent Efficacy Post-Treatment,"Culex spp.; 50% concentration, 24 hours",0%
same,"No. landings, Mean",Culex spp.; [8],5.0
same,Percent = [(No. landings/No. present)] × 100,Culex spp.; [8],18.7%
same,No. landings,Culex spp.; [8],7 and 4 (2×)
same,observed repellent / residual activity (words),Culex spp.; 50% concentration,activity greatly diminished or was absent after 12 and 24 hours.
same,Percent Efficacy Post-Treatment,"Culex spp.; 100% concentration, 0 hours",87.7%
same,"No. landings, Mean",Culex spp.; [9],1.3
same,Percent = [(No. landings/No. present)] × 100,Culex spp.; [9],1.8%
same,Percent = [(No. landings/No. present)] × 100,"Culex spp.; 100% concentration, 0 hours after treatment, listed as 2-Tridecanone",1.8%
same,No. landings,Culex spp.; [9],0 and 1 and 3
same,Percent Efficacy Post-Treatment,"Culex spp.; 100% concentration, 6 hours",18.1%
same,"No. landings, Mean",Culex spp.; [10],9.7
same,Percent = [(No. landings/No. present)] × 100,Culex spp.; [10],10.9%
same,No. landings,Culex spp.; [10],9 and 10 (2×)
same,Percent Efficacy Post-Treatment,"Culex spp.; 100% concentration, 12 hours",41.9%
same,"No. landings, Mean",Culex spp.; [11],10.3
same,Percent = [(No. landings/No. present)] × 100,Culex spp.; [11],9.7%
same,No. landings,Culex spp.; [11],16 and 7 and 8
same,Percent Efficacy Post-Treatment,"Culex spp.; 100% concentration, 24 hours",0%
same,"No. landings, Mean",Culex spp.; [12],15.0
same,Percent = [(No. landings/No. present)] × 100,Culex spp.; [12],13.3%
same,No. landings,Culex spp.; [12],17 and 15 and 13
same,observed repellent / residual activity (words),Culex spp.; 100% concentration,Comments: The compound was highly repellent. A huge cloud of mosquitoes retreated
same,"overall repellent activity, comparison of the two compounds","Culex spp.; 100%, 50% and 20% concentrations, 0 to 24 hours",less effective as a repellent against mosquitoes than 2-undecanone
"CCN(CC)C(=O)c1cccc(C)c1 [DEET, N,N-diethyl-meta-toluamide, reference compound]",Percent Efficacy Post-Treatment,"Culex spp.; 20% concentration, 0 hours",91.1%
same,"No. landings, Mean",Culex spp.; [1],1.3
same,Percent = [(No. landings/No. present)] × 100,Culex spp.; [1],1.3%
same,No. landings,Culex spp.; [1],2 (2×) and 0
same,Percent Efficacy Post-Treatment,"Culex spp.; 20% concentration, 6 hours",63.9%
same,"No. landings, Mean",Culex spp.; [2],5.7
same,Percent = [(No. landings/No. present)] × 100,Culex spp.; [2],4.8%
same,No. landings,Culex spp.; [2],10 and 4 and 3
same,Percent Efficacy Post-Treatment,"Culex spp.; 20% concentration, 12 hours",31.7%
same,"No. landings, Mean",Culex spp.; [3],15.0
same,Percent = [(No. landings/No. present)] × 100,Culex spp.; [3],11.4%
same,No. landings,Culex spp.; [3],12 and 15 and 18
same,Percent Efficacy Post-Treatment,"Culex spp.; 20% concentration, 24 hours",16.8%
same,"No. landings, Mean",Culex spp.; [4],13.0
same,Percent = [(No. landings/No. present)] × 100,Culex spp.; [4],10.9%
same,No. landings,Culex spp.; [4],14 (2×) and 11
same,observed repellent / residual activity (words),Culex spp.; 20% concentration,"strong immediate and residual activity for up to 6 hours, weak activity at 12 hours and none thereafter; also recorded: treatment, but no residual activity was observed at 12 or 24 hours post-treatment"
